# Measurements reported in patent publication US10597388B2, “Pyridazinone herbicides” (FMC CORPORATION, priority 2014, dated 2020).
# Experiments:
# Test in all cases: Test D controlled growth environment herbicide test, pre- and postemergence
# Assay type in all cases: in vivo
# [1] = test system: wheat, spring (spring wheat, Triticum aestivum)
# Method in brief: (§1)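 Species sown in silt loam and sprayed preemergence, or grown in peat-based medium to 2–18 cm (1- to 4-leaf stage) and sprayed postemergence, with compounds in non-phytotoxic solvent plus surfactant. Visual injury scored versus controls after 14–21 d in a controlled environment, 0 (no effect) to 100 (complete control).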
# [2] = test system: ryegrass, Italian (Italian ryegrass, Lolium multiflorum)
# Method in brief: as §1
# [3] = test system: deadnettle (henbit deadnettle, Lamium amplexicaule)
# Method in brief: as §1
# [4] = test system: field violet (Viola arvensis)
# Method in brief: as §1
# [5] = test system: wheat, winter (winter wheat, Triticum aestivum)
# Method in brief: as §1
# [6] = test system: foxtail, green (green foxtail, Setaria viridis)
# Method in brief: as §1
# [7] = test system: blackgrass (Alopecurus myosuroides)
# Method in brief: as §1
# [8] = test system: windgrass (Apera spica-venti)
# Method in brief: as §1
# [9] = test system: Russian thistle (Salsola kali)
# Method in brief: as §1
# [10] = test system: canarygrass (Phalaris minor)
# Method in brief: as §1
# [11] = test system: lambsquarters (Chenopodium album)
# Method in brief: as §1
# [12] = test system: kochia (Kochia scoparia)
# Method in brief: as §1
# [13] = test system: chickweed (common chickweed, Stellaria media)
# Method in brief: as §1
# [14] = Postemergence, 31 g ai/ha, scale 0 to 100 (0 no effect, 100 complete control)
# [15] = Postemergence, 125 g ai/ha, visual rating on scale 0 (no effect) to 100 (complete control), 14 to 21 d
# [16] = Postemergence, 250 g ai/ha, scale 0 to 100 (0 no effect, 100 complete control)
# [17] = Preemergence, 125 g ai/ha, scale 0 to 100 (0 no effect, 100 complete control)
# [18] = Preemergence, 250 g ai/ha, scale 0 to 100 (0 no effect, 100 complete control)
# [19] = postemergence, 62 g ai/ha, scale 0 to 100, 0 no effect, 100 complete control
smiles,measurement,setting,value
CCOC(=O)Oc1c(C)nn(C)c(=O)c1-c1c(C)sc2ccc(C)cc12 [Compound 82],"Wheat, Spring plant response rating",[1]; [14],0
same,"Plant response rating, Wheat, Spring",[1]; [15],0
same,"Plant response rating, Wheat, Spring",[1]; [16],5
same,"Plant response rating (scale of 0 to 100), Wheat, Spring","[1]; Preemergence, 31 g ai/ha",0
same,"Plant response rating (scale of 0 to 100), Wheat, Spring","[1]; Preemergence, 62 g ai/ha",0
same,"Plant response rating, Wheat, Spring",[1]; [17],15
same,"Plant response rating, Wheat, Spring",[1]; [18],40
same,"Plant response rating, Wheat, Spring",[1]; [19],0
same,"Ryegrass, Italian plant response rating",[2]; [14],85
same,"Plant response rating, Ryegrass, Italian",[2]; [15],90
same,"Plant response rating, Ryegrass, Italian",[2]; [16],90
same,"Plant response rating (scale of 0 to 100), Ryegrass, Italian","[2]; Preemergence, 31 g ai/ha",75
same,"Plant response rating (scale of 0 to 100), Ryegrass, Italian","[2]; Preemergence, 62 g ai/ha",80
same,"Plant response rating, Ryegrass, Italian",[2]; [17],90
same,"Plant response rating, Ryegrass, Italian",[2]; [18],95
same,"Plant response rating, Ryegrass, Italian",[2]; [19],85
same,Deadnettle plant response rating,[3]; [14],10
same,"Plant response rating, Deadnettle",[3]; [15],25
same,"Plant response rating, Deadnettle",[3]; [16],35
same,"Plant response rating (scale of 0 to 100), Deadnettle","[3]; Preemergence, 31 g ai/ha",10
same,"Plant response rating (scale of 0 to 100), Deadnettle","[3]; Preemergence, 62 g ai/ha",25
same,"Plant response rating, Deadnettle",[3]; [17],25
same,"Plant response rating, Deadnettle",[3]; [18],70
same,"Plant response rating, Deadnettle",[3]; [19],10
same,Field Violet plant response rating,[4]; [14],95
same,"Plant response rating, Field Violet",[4]; [15],100
same,"Plant response rating, Field Violet",[4]; [16],100
same,"Plant response rating (scale of 0 to 100), Field Violet","[4]; Preemergence, 31 g ai/ha",100
same,"Plant response rating (scale of 0 to 100), Field Violet","[4]; Preemergence, 62 g ai/ha",90
same,"Plant response rating, Field Violet",[4]; [17],95
same,"Plant response rating, Field Violet",[4]; [18],100
same,"Plant response rating, Field Violet",[4]; [19],100
same,"Wheat, Winter plant response rating",[5]; [14],0
same,"Plant response rating, Wheat, Winter",[5]; [15],0
same,"Plant response rating, Wheat, Winter",[5]; [16],0
same,"Plant response rating (scale of 0 to 100), Wheat, Winter","[5]; Preemergence, 31 g ai/ha",0
same,"Plant response rating (scale of 0 to 100), Wheat, Winter","[5]; Preemergence, 62 g ai/ha",0
same,"Plant response rating, Wheat, Winter",[5]; [17],0
same,"Plant response rating, Wheat, Winter",[5]; [18],10
same,"Plant response rating, Wheat, Winter",[5]; [19],0
same,"Foxtail, Green plant response rating",[6]; [14],75
same,"Plant response rating, Foxtail, Green",[6]; [15],85
same,"Plant response rating, Foxtail, Green",[6]; [16],90
same,"Plant response rating (scale of 0 to 100), Foxtail, Green","[6]; Preemergence, 31 g ai/ha",35
same,"Plant response rating (scale of 0 to 100), Foxtail, Green","[6]; Preemergence, 62 g ai/ha",75
same,"Plant response rating, Foxtail, Green",[6]; [17],90
same,"Plant response rating, Foxtail, Green",[6]; [18],85
same,"Plant response rating, Foxtail, Green",[6]; [19],80
same,Blackgrass plant response rating,[7]; [14],45
same,"Plant response rating, Blackgrass",[7]; [15],75
same,"Plant response rating, Blackgrass",[7]; [16],80
same,"Plant response rating (scale of 0 to 100), Blackgrass","[7]; Preemergence, 31 g ai/ha",70
same,"Plant response rating, Blackgrass","[7]; Preemergence, 62 g ai/ha, scale 0 to 100 (0 no effect, 100 complete control)",75
same,"Plant response rating, Blackgrass",[7]; [17],75
same,"Plant response rating, Blackgrass",[7]; [18],80
same,"Plant response rating, Blackgrass",[7]; [19],70
same,Windgrass plant response rating,[8]; [14],70
same,"Plant response rating, Windgrass",[8]; [15],80
same,"Plant response rating, Windgrass",[8]; [16],85
same,"Plant response rating (scale of 0 to 100), Windgrass","[8]; Preemergence, 31 g ai/ha",75
same,"Plant response rating (scale of 0 to 100), Windgrass","[8]; Preemergence, 62 g ai/ha",80
same,"Plant response rating, Windgrass",[8]; [17],100
same,"Plant response rating, Windgrass",[8]; [18],100
same,"Plant response rating, Windgrass",[8]; [19],75
same,Russian Thistle plant response rating,[9]; [14],65
same,"Plant response rating, Russian Thistle",[9]; [15],75
same,"Plant response rating, Russian Thistle",[9]; [16],85
same,"Plant response rating (scale of 0 to 100), Russian Thistle","[9]; Preemergence, 31 g ai/ha",10
same,"Plant response rating (scale of 0 to 100), Russian Thistle","[9]; Preemergence, 62 g ai/ha",15
same,"Plant response rating, Russian Thistle",[9]; [17],65
same,"Plant response rating, Russian Thistle",[9]; [18],65
same,"Plant response rating, Russian Thistle",[9]; [19],75
same,Canarygrass plant response rating,[10]; [14],50
same,"Plant response rating, Canarygrass",[10]; [15],75
same,"Plant response rating, Canarygrass",[10]; [16],85
same,"Plant response rating (scale of 0 to 100), Canarygrass","[10]; Preemergence, 31 g ai/ha",75
same,"Plant response rating (scale of 0 to 100), Canarygrass","[10]; Preemergence, 62 g ai/ha",85
same,"Plant response rating, Canarygrass",[10]; [17],90
same,"Plant response rating, Canarygrass",[10]; [18],95
same,"Plant response rating, Canarygrass",[10]; [19],55
same,Lambsquarters plant response rating,[11]; [14],95
same,"Plant response rating, Lambsquarters",[11]; [15],95
same,"Plant response rating, Lambsquarters",[11]; [16],100
same,"Plant response rating (scale of 0 to 100), Lambsquarters","[11]; Preemergence, 31 g ai/ha",75
same,"Plant response rating (scale of 0 to 100), Lambsquarters","[11]; Preemergence, 62 g ai/ha",95
same,"Plant response rating, Lambsquarters",[11]; [17],100
same,"Plant response rating, Lambsquarters",[11]; [18],100
same,"Plant response rating, Lambsquarters",[11]; [19],95
same,Kochia plant response rating,[12]; [14],90
same,"Plant response rating, Kochia",[12]; [15],100
same,"Plant response rating, Kochia",[12]; [16],100
same,"Plant response rating (scale of 0 to 100), Kochia","[12]; Preemergence, 31 g ai/ha",0
same,"Plant response rating (scale of 0 to 100), Kochia","[12]; Preemergence, 62 g ai/ha",15
same,"Plant response rating, Kochia",[12]; [17],75
same,"Plant response rating, Kochia",[12]; [18],100
same,"Plant response rating, Kochia",[12]; [19],95
same,Chickweed plant response rating,[13]; [14],80
same,"Plant response rating, Chickweed",[13]; [15],95
same,"Plant response rating, Chickweed",[13]; [16],100
same,"Plant response rating (scale of 0 to 100), Chickweed","[13]; Preemergence, 31 g ai/ha",100
same,"Plant response rating (scale of 0 to 100), Chickweed","[13]; Preemergence, 62 g ai/ha",100
same,"Plant response rating, Chickweed",[13]; [17],100
same,"Plant response rating, Chickweed",[13]; [18],100
same,"Plant response rating, Chickweed",[13]; [19],90
